Patent publication US11987586B1 (TAKEDA PHARMACEUTICAL COMPANY LIMITED, priority 2022, dated 2024)

Target: T1, human OX2 receptor (Homo sapiens, UniProt O43614)
T1 construct: expressed in transfected cells
T1 sequence (O43614 1-444): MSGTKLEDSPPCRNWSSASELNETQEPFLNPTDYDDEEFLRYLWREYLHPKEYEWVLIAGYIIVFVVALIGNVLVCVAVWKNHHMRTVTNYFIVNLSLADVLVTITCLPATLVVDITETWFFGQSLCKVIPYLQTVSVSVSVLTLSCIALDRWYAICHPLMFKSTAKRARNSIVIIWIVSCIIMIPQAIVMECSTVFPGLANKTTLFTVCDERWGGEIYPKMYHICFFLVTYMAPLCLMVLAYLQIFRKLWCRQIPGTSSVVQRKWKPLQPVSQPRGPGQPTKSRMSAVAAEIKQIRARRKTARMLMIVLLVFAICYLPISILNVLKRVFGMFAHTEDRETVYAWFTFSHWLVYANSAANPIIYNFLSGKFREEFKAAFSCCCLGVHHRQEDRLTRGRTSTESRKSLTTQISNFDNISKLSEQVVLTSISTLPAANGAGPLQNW
Test: Measurement of orexin type 2 receptor agonist activity (calcium fluorescence, Fluo-4, FDSS)
Type: cell-based
Details: 3 uM test compound; CHO cells expressing human OX2 receptor; DMSO = 0%, 10 nM orexin A (human) = 100%
Summary of the method: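 CHO-K1 cells stably expressing human OX2 receptor (residues 1-444) were loaded with Fluo-4 AM plus probenecid. Calcium fluorescence after compound addition was recorded for 1 min 40 s. Activity (%) was scaled between DMSO (0%) and 10 nM orexin A final (100%).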

Row | Structure (SMILES) | OX2R agonist activity (3 uM, %)
1 | CCOc1cc(-c2c(F)cc(F)cc2F)c2c(N3C[C@H]4N(C[C@@H](NS(C)(=O)=O)C4(F)F)C3=O)noc2c1 [Example 160, N-{(6R,7aR)-2-[6-ethoxy-4-(2,4,6-trifluorophenyl)-1,2-benzoxazol-3-yl]-7,7-difluoro-3-oxohexahydro-1H-pyrrolo[1,2-c]imidazol-6-yl}methanesulfonamide] | 99%
2 | CCS(=O)(=O)N[C@@H]1CN2C(=O)N(c3noc4cccc(-c5ccccc5OC)c34)CC[C@@H]2C1(F)F [Example 322, N-{(4aR,6R)-5,5-difluoro-2-[4-(2-methoxyphenyl)-1,2-benzoxazol-3-yl]-1-oxooctahydropyrrolo[1,2-c]pyrimidin-6-yl}ethanesulfonamide] | 99%
3 | CS(=O)(=O)N[C@H]1Cc2cn(-c3noc4cccc(-c5c(F)cccc5F)c34)c(=O)n2C1 [Example 26, N-{(6S)-2-[4-(2,6-difluorophenyl)-1,2-benzoxazol-3-yl]-3-oxo-2,5,6,7-tetrahydro-3H-pyrrolo[1,2-c]imidazol-6-yl}methanesulfonamide] | 97%
4 | CS(=O)(=O)N[C@@H]1Cn2c(cn(-c3noc4cc(C(F)F)cc(-c5c(F)cccc5F)c34)c2=O)C1(F)F [Example 136, N-{(6R)-2-[6-(difluoromethyl)-4-(2,6-difluorophenyl)-1,2-benzoxazol-3-yl]-7,7-difluoro-3-oxo-2,5,6,7-tetrahydro-3H-pyrrolo[1,2-c]imidazol-6-yl}methanesulfonamide] | 99%
5 | CCS(=O)(=O)N[C@H]1Cc2c(C)n(-c3noc4cc(C(F)(F)F)cc(-c5c(F)cccc5F)c34)c(=O)n2C1 [Example 86, N-{(6S)-2-[4-(2,6-difluorophenyl)-6-(trifluoromethyl)-1,2-benzoxazol-3-yl]-1-methyl-3-oxo-2,5,6,7-tetrahydro-3H-pyrrolo[1,2-c]imidazol-6-yl}ethanesulfonamide] | 103%
6 | CCS(=O)(=O)N[C@@H]1CN2C(=O)N(c3noc4cc(F)cc(-c5c(F)cc(F)cc5F)c34)C[C@@H]2C1(F)F [Example 124, N-{(6R,7aR)-7,7-Difluoro-2-[6-fluoro-4-(2,4,6-trifluorophenyl)-1,2-benzoxazol-3-yl]-3-oxohexahydro-1H-pyrrolo[1,2-c]imidazol-6-yl}ethanesulfonamide] | 101%
7 | CCS(=O)(=O)N[C@@H]1Cn2c(cn(-c3noc4cc(C)cc(-c5c(F)cccc5F)c34)c2=O)C1(F)F [Example 156, N-{(6R)-2-[4-(2,6-difluorophenyl)-6-methyl-1,2-benzoxazol-3-yl]-7,7-difluoro-3-oxo-2,5,6,7-tetrahydro-3H-pyrrolo[1,2-c]imidazol-6-yl}ethanesulfonamide] | 102%
8 | CCOc1cc2onc(N3CC[C@H]4N(C[C@@H](NS(C)(=O)=O)C4(F)F)C3=O)c2c(-c2c(F)cccc2F)c1F [Example 228, N-{(4aR,6R)-2-[4-(2,6-difluorophenyl)-6-ethoxy-5-fluoro-1,2-benzoxazol-3-yl]-5,5-difluoro-1-oxooctahydropyrrolo[1,2-c]pyrimidin-6-yl}methanesulfonamide] | 102%
9 | CCOc1cc(-c2c(F)cccc2F)c2c(-n3cc4n(c3=O)C[C@@H](NS(C)(=O)=O)C4(F)F)noc2c1 [Example 194, N-{(6R)-2-[4-(2,6-difluorophenyl)-6-ethoxy-1,2-benzoxazol-3-yl]-7,7-difluoro-3-oxo-2,5,6,7-tetrahydro-3H-pyrrolo[1,2-c]imidazol-6-yl}methanesulfonamide] | 92%
10 | Cc1cc2onc(-n3cc4n(c3=O)C[C@@H](NS(C)(=O)=O)C4(F)F)c2c(-c2c(F)cccc2F)n1 [Example 196, N-{(6R)-2-[4-(2,6-difluorophenyl)-6-methyl[1,2]oxazolo[4,5-c]pyridin-3-yl]-7,7-difluoro-3-oxo-2,5,6,7-tetrahydro-3H-pyrrolo[1,2-c]imidazol-6-yl}methanesulfonamide] | 106%
11 | CCS(=O)(=O)NC1Cn2c(cn(-c3noc4ccc(F)c(-c5c(F)cc(F)cc5F)c34)c2=O)CC1(F)F (single isomer, unassigned) [Example 246, N-{(6R*)-7,7-difluoro-2-[5-fluoro-4-(2,4,6-trifluorophenyl)-1,2-benzoxazol-3-yl]-3-oxo-2,3,5,6,7,8-hexahydroimidazo[1,5-a]pyridin-6-yl}ethanesulfonamide] | 107%
12 | CCS(=O)(=O)N[C@@H]1CN2C(=O)N(c3noc4cccc(-c5ccccc5Cl)c34)CC[C@@H]2C1(F)F [Example 327, N-{(4aR,6R)-2-[4-(2-chlorophenyl)-1,2-benzoxazol-3-yl]-5,5-difluoro-1-oxooctahydropyrrolo[1,2-c]pyrimidin-6-yl}ethanesulfonamide] | 118%
13 | CS(=O)(=O)N[C@@H]1CN2C(=O)N(c3noc4cc(C(F)F)cc(-c5c(F)cc(F)cc5F)c34)CC[C@@H]2C1(F)F [Example 200, N-{(4aR,6R)-2-[6-(difluoromethyl)-4-(2,4,6-trifluorophenyl)-1,2-benzoxazol-3-yl]-5,5-difluoro-1-oxooctahydropyrrolo[1,2-c]pyrimidin-6-yl}methanesulfonamide] | 122%
14 | O=c1n(-c2noc3cc(C(F)F)cc(-c4c(F)cc(F)cc4F)c23)cc2n1C[C@@H](NS(=O)(=O)CF)C2(F)F [Example 267, N-{(6R)-2-[6-(difluoromethyl)-4-(2,4,6-trifluorophenyl)-1,2-benzoxazol-3-yl]-7,7-difluoro-3-oxo-2,5,6,7-tetrahydro-3H-pyrrolo[1,2-c]imidazol-6-yl}-1-fluoromethanesulfonamide] | 101%
15 | CCS(=O)(=O)N[C@@H]1CN2C(=O)N(c3noc4cc(F)cc(-c5c(F)cccc5F)c34)CC[C@@H]2C1(F)F [Example 263, N-{(4aR,6R)-2-[4-(2,6-difluorophenyl)-6-fluoro-1,2-benzoxazol-3-yl]-5,5-difluoro-1-oxooctahydropyrrolo[1,2-c]pyrimidin-6-yl}ethanesulfonamide] | 114%
16 | CCS(=O)(=O)N[C@@H]1CN2C(=O)N(c3noc4nccc(-c5c(F)cc(F)cc5F)c34)CC[C@@H]2C1(F)F [Example 235, N-{(4aR,6R)-5,5-difluoro-1-oxo-2-[4-(2,4,6-trifluorophenyl)[1,2]oxazolo[5,4-b]pyridin-3-yl]octahydropyrrolo[1,2-c]pyrimidin-6-yl}ethanesulfonamide] | 113%
17 | CCS(=O)(=O)N[C@@H]1CN2C(=O)N(c3noc4cccc(-c5ccco5)c34)CC[C@@H]2C1(F)F [Example 324, N-{(4aR,6R)-5,5-difluoro-2-[4-(furan-2-yl)-1,2-benzoxazol-3-yl]-1-oxooctahydropyrrolo[1,2-c]pyrimidin-6-yl}ethanesulfonamide] | 97%
18 | COCc1cc(-c2c(F)cc(F)cc2F)c2c(N3CC[C@H]4N(C[C@@H](NS(=O)(=O)C5CC5)C4(F)F)C3=O)noc2c1 [Example 222, N-{(4aR,6R)-5,5-difluoro-2-[6-(methoxymethyl)-4-(2,4,6-trifluorophenyl)-1,2-benzoxazol-3-yl]-1-oxooctahydropyrrolo[1,2-c]pyrimidin-6-yl}cyclopropanesulfonamide] | 107%
19 | CS(=O)(=O)N[C@@H]1CN2C(=O)N(c3noc4cccc(-c5c(F)cccc5F)c34)C[C@H]2CC1(F)F (relative stereo) [Example 216, rel-N-{(6R,8aR)-2-[4-(2,6-difluorophenyl)-1,2-benzoxazol-3-yl]-7,7-difluoro-3-oxooctahydroimidazo[1,5-a]pyridin-6-yl}methanesulfonamide] | 101%
20 | CCS(=O)(=O)N[C@@H]1Cn2c(cn(-c3noc4cc(COC)cc(-c5c(F)cccc5F)c34)c2=O)C1(F)F [Example 167, N-{(6R)-2-[4-(2,6-difluorophenyl)-6-(methoxymethyl)-1,2-benzoxazol-3-yl]-7,7-difluoro-3-oxo-2,5,6,7-tetrahydro-3H-pyrrolo[1,2-c]imidazol-6-yl}ethanesulfonamide] | 97%
21 | CCS(=O)(=O)N[C@@H]1Cn2c(cn(-c3noc4cc(F)c(F)c(-c5c(F)cc(F)cc5F)c34)c2=O)C1(F)F [Example 121, N-{(6R)-2-[5,6-difluoro-4-(2,4,6-trifluorophenyl)-1,2-benzoxazol-3-yl]-7,7-difluoro-3-oxo-2,5,6,7-tetrahydro-3H-pyrrolo[1,2-c]imidazol-6-yl}ethanesulfonamide] | 93%
22 | Cc1cc(-c2c(F)cccc2F)c2c(N3C[C@H]4N(C[C@@H](NS(C)(=O)=O)C4(F)F)C3=O)noc2c1 [Example 126, N-{(6R,7aR)-2-[4-(2,6-Difluorophenyl)-6-methyl-1,2-benzoxazol-3-yl]-7,7-difluoro-3-oxohexahydro-1H-pyrrolo[1,2-c]imidazol-6-yl}methanesulfonamide] | 97%
23 | CCS(=O)(=O)N[C@@H]1Cn2c(cn(-c3noc4cc(C)c(F)c(-c5c(F)cc(F)cc5F)c34)c2=O)C1(F)F [Example 163, N-{(6R)-7,7-difluoro-2-[5-fluoro-6-methyl-4-(2,4,6-trifluorophenyl)-1,2-benzoxazol-3-yl]-3-oxo-2,5,6,7-tetrahydro-3H-pyrrolo[1,2-c]imidazol-6-yl}ethanesulfonamide] | 103%
